For orientation: IC50 means the concentration that inhibits the measured activity by half.

The text below walks through data of patent US20160046618A1, “Cyclopropyl Fused Thiazin-2-Amine Compounds as Beta-Secretase Inhibitors and Methods of Use” (AMGEN INC., priority 2014, published 2016).

In one test the target is Recombinant Cat D (Homo sapiens (Human), UniProt P07339). Kind of test: In vitro enzymatic Cathepsin D (Cat D) FRET assay. In kind it is biochemical. As to conditions: read-out: IC50 IP (μM) CatD. An outline of the steps:
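Fluorescence at 500 nm excitation and 580 nm emission reports cleavage of a quenched fluorophore–quencher peptide (20 nM) by CHO-expressed Cat D. Reactions ran one hour in 0.05 M citrate pH 3.5, 5 mM CHAPS, 10% DMSO final before a Tris stop raised pH to neutrality.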

The target of the next test is human recombinant BACE2 (Homo sapiens (Human), UniProt Q9Y5Z0). In words: In vitro enzymatic BACE2 FRET assay. As to conditions: read-out: IC50 IP (μM) BACE2 enzyme. The format is biochemical. The essentials: (§1)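 FRET cleavage assay using Ni-NTA-purified recombinant protease and 50 nM quenched peptide substrate, 1 h. Stopped by neutralising with Tris; fluorescence at 488/590 nm.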

In a further test the target is human recombinant BACE1 (Homo sapiens (Human), UniProt P56817). Kind of test: In vitro enzymatic BACE1 FRET assay. The format is biochemical. Conditions: read-out: IC50 IP (μM) BACE1 enzyme. An outline of the steps: as §1
Test [1] relates to Aβ40 in conditioned medium of cells stably expressing Amyloid Precursor Protein (APP). In words: In vitro BACE-1 cell-based assay (Aβ40 sandwich ELISA). Conditions: read-out: IC50 IP (μM) BACE1 cell. An outline of the steps: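 APP-stable cells, pre-cultured 24 h at 37° C in DMEM/10% FBS, were treated 24 h with compound in a 10-point series starting at 100 μM or 10 μM (0.1% DMSO final). Secreted Aβ40 in conditioned medium was measured by pAb40/biotin-6E10 sandwich ELISA with Europium time-resolved fluorescence; IC50 from percent inhibition versus concentration.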
On the technique in general: ELISA stands for enzyme-linked immunosorbent assay.

Read-outs that look alike come from different tables or passages of the source.

Recombinant Cat D, sequence (P07339 65-412): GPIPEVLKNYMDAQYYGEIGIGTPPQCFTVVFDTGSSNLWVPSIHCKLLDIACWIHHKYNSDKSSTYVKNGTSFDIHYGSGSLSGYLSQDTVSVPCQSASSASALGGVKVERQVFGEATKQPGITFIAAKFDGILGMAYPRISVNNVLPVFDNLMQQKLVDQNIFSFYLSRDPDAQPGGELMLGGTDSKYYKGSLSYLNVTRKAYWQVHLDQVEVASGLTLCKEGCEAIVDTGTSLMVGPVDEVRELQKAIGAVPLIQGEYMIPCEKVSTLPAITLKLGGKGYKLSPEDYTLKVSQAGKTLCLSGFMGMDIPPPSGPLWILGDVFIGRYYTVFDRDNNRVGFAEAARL
human recombinant BACE2, sequence (Q9Y5Z0 63-518): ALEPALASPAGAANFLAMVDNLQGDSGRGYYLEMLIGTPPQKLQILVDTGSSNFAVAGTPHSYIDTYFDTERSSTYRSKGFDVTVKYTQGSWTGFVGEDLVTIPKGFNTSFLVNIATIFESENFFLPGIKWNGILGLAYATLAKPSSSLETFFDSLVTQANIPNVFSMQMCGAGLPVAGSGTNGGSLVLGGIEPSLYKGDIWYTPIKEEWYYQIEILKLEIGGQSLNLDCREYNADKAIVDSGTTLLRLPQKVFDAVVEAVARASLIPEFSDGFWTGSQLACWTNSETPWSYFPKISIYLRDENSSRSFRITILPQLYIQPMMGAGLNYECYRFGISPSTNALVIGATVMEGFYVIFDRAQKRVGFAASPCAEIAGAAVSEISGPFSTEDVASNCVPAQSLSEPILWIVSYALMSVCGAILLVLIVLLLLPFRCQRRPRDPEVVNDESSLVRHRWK
human recombinant BACE1, sequence (P56817 46-501): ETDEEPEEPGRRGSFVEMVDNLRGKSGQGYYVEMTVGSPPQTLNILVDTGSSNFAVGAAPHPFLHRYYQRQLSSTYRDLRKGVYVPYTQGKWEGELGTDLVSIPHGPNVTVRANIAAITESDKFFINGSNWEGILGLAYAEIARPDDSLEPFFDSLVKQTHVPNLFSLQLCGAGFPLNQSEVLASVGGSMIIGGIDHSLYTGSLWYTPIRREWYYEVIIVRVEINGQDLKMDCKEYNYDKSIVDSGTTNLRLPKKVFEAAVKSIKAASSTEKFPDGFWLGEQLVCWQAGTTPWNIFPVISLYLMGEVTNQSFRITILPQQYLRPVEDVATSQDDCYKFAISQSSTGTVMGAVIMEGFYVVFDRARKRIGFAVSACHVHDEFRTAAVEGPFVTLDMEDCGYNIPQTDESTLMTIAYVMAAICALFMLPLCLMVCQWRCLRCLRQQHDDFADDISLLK

With `Cc1cnc(COc2cnc3c(Nc4cc(F)c(F)c([C@@]5(C)N=C(N)S[C@@]6(C(F)F)C[C@@H]56)c4)nccc3n2)o1` [Example 888, N-(3-((1S,5S,6S)-3-amino-1-(difluoromethyl)-5-methyl-2-thia-4-azabicyclo[4.1.0]hept-3-en-5-yl)-4,5-difluorophenyl)-2-((5-methyl-1,3-oxazol-2-yl)methoxy)pyrido[3,4-b]pyrazin-5-amine], the IC50 is 71.9 µM on Recombinant Cat D, 0.0581 µM on human recombinant BACE2, 0.00209 µM on human recombinant BACE1 and 0.0218 µM in test [1].
`Cc1cc(C#N)cnc1C(=O)Nc1cc(F)c(F)c([C@@]2(CF)N=C(N)S[C@@]3(CO)C[C@H]32)c1` [Example 70, N-(3-((1S,5S,6S)-3-amino-5-(fluoromethyl)-1-(hydroxymethyl)-2-thia-4-azabicyclo[4.1.0]hept-3-en-5-yl)-4,5-difluorophenyl)-5-cyano-3-methyl-2-pyridinecarboxamide]: the IC50 is greater than 400 µM on Recombinant Cat D (Cathepsin D FRET enzyme assay), 0.00247 µM on human recombinant BACE2 (BACE2 FRET enzyme assay), 0.00116 µM at human recombinant BACE1 (BACE1 FRET enzyme assay) and 0.0035 µM in test [1] (BACE1 cell-based assay).
Take `COC[C@@]12SC(N)=N[C@](C)(c3cc(Nc4ncnc5cc(C#N)cnc45)ccc3F)[C@@H]1C2(F)F` [Example 709, 4-((3-((1S,5S,6R)-3-amino-7,7-difluoro-1-(methoxymethyl)-5-methyl-2-thia-4-azabicyclo[4.1.0]hept-3-en-5-yl)-4-fluorophenyl)amino)pyrido[3,2-d]pyrimidine-7-carbonitrile]: the IC50 was 148 µM at Recombinant Cat D, 0.0257 µM on human recombinant BACE2, 0.0092 µM at human recombinant BACE1 and 0.104 µM in test [1].
As for `COC[C@]12C[C@H]1[C@@](C)(c1cc(NC(=O)c3cnc(OCC4CC4(F)F)cn3)cc(F)c1F)N=C(N)S2` (stereo partly drawn) [Example 1035, N-(3-((1S,5S,6S)-3-amino-1-(methoxymethyl)-5-methyl-2-thia-4-azabicyclo[4.1.0]hept-3-en-5-yl)-4,5-difluorophenyl)-5-((2,2-difluorocyclopropyl)methoxy)pyrazine-2-carboxamide], the IC50 was determined as 1210 µM on Recombinant Cat D, 0.1 µM on human recombinant BACE2, 0.00258 µM at human recombinant BACE1 and 0.022 µM in test [1].
As to `C#CCOc1cnc(C(=O)Nc2cnc(F)c([C@@]3(C)N=C(N)S[C@@]4(COC)C[C@H]43)c2)c(C)n1` [Example 845, N-(5-((1S,5S,6S)-3-amino-1-(methoxymethyl)-5-methyl-2-thia-4-azabicyclo[4.1.0]hept-3-en-5-yl)-6-fluoro-3-pyridinyl)-3-methyl-5-(2-propyn-1-yloxy)-2-pyrazinecarboxamide], the IC50 at Recombinant Cat D was 1710 µM; on human recombinant BACE2, 0.0257 µM; at human recombinant BACE1, 0.0026 µM; in test [1], 0.00473 µM.
In the case of `COC[C@]12C[C@H]1[C@@](C)(c1cc(NC(=O)c3cnc(OCC4(C)CC4)cn3)cc(F)c1F)N=C(N)S2` [Example 1061, N-(3-((1S,5S,6S)-3-amino-1-(methoxymethyl)-5-methyl-2-thia-4-azabicyclo[4.1.0]hept-3-en-5-yl)-4,5-difluorophenyl)-5-((1-methylcyclopropyl)methoxy)-2-pyrazinecarboxamide], the IC50 was greater than 400 µM on Recombinant Cat D, 0.17 µM at human recombinant BACE2, 0.0047 µM on human recombinant BACE1 and 0.0039 µM in test [1].
In the case of `C[C@]1(c2cc(NC(=O)c3cnc(OCC(F)(F)F)cn3)ccc2F)N=C(N)S[C@@]2(CF)C[C@H]21` [Example 826, N-(3-((1S,5S,6S)-3-amino-1-(fluoromethyl)-5-methyl-2-thia-4-azabicyclo[4.1.0]hept-3-en-5-yl)-4-fluorophenyl)-5-(2,2,2-trifluoroethoxy)-2-pyrazinecarboxamide], the IC50 at Recombinant Cat D was found to be 395 µM; at human recombinant BACE2 it was 0.0778 µM; at human recombinant BACE1, 0.00174 µM; in test [1], 0.00331 µM.
On the same counts, the results for `C#CCOc1cnc2c(Nc3ccc(F)c([C@@]4(CF)N=C(N)S[C@@]5(COC)C[C@H]54)c3)ncnc2c1` [Example 942, N-(3-((1S,5S,6S)-3-amino-5-(fluoromethyl)-1-(methoxymethyl)-2-thia-4-azabicyclo[4.1.0]hept-3-en-5-yl)-4-fluorophenyl)-7-(2-propyn-1-yloxy)pyrido[3,2-d]pyrimidin-4-amine] are 1090 µM, 0.0417 µM, 0.00314 µM and 0.00518 µM.
For `C[C@]1(c2cc(NC(=O)c3ccc(Cl)cn3)cnc2F)N=C(N)S[C@@]2(CO)C[C@H]21` [Example 100, N-(5-((1S,5S,6S)-3-amino-1-(hydroxymethyl)-5-methyl-2-thia-4-azabicyclo[4.1.0]hept-3-en-5-yl)-6-fluoropyridin-3-yl)-5-chloropicolinamide], the IC50 on Recombinant Cat D (Cathepsin D FRET enzyme assay) was greater than 400 µM; on human recombinant BACE2 (BACE2 FRET enzyme assay) it was 0.0038 µM; on human recombinant BACE1 (BACE1 FRET enzyme assay) it was 0.0225 µM; in test [1] (BACE1 cell-based assay), 0.0112 µM.
The corresponding values for `C#CCOc1cnc(C(=O)Nc2ccc(F)c([C@@]3(C)N=C(N)S[C@@H]4[C@H]3C4(F)F)c2)c(C)n1` [Example 102, N-(3-((1R,5S,6R)-3-amino-7,7-difluoro-5-methyl-2-thia-4-azabicyclo[4.1.0]hept-3-en-5-yl)-4-fluorophenyl)-3-methyl-5-(prop-2-yn-1-yloxy)pyrazine-2-carboxamide] are 361 µM, 0.019 µM, 0.00433 µM and 0.058 µM.
Regarding `C[C@]1(c2cc(NC(=O)c3ccc(Cl)cn3)ccc2F)N=C(N)S[C@@H]2[C@H]1C2(F)F` [Example 69, N-(3-((1R,5S,6R)-3-amino-7,7-difluoro-5-methyl-2-thia-4-azabicyclo[4.1.0]hept-3-en-5-yl)-4-fluorophenyl)-5-chloro-2-pyridinecarboxamide], the IC50 on Recombinant Cat D (Cathepsin D FRET enzyme assay) was 939 µM; on human recombinant BACE2 (BACE2 FRET enzyme assay), 0.00302 µM; at human recombinant BACE1 (BACE1 FRET enzyme assay) it was 0.0152 µM; in test [1] (BACE1 cell-based assay), 0.114 µM.
As for `C#C[C@H](C)Oc1cnc2c(Nc3cc(F)c(F)c([C@@]4(C)N=C(N)S[C@@]5(C(=O)N(C)C)C[C@H]54)c3)nccc2n1` [Example 925, (1S,5S,6S)-3-amino-5-(2,3-difluoro-5-((2-(((1S)-1-methyl-2-propyn-1-yl)oxy)pyrido[3,4-b]pyrazin-5-yl)amino)phenyl)-N,N,5-trimethyl-2-thia-4-azabicyclo[4.1.0]hept-3-ene-1-carboxamide], the IC50 on Recombinant Cat D was greater than 400 µM; at human recombinant BACE2, 0.00387 µM; at human recombinant BACE1, 0.0014 µM; in test [1], 0.00308 µM.
On the same counts, the results for `C#C[C@H](C)Oc1cnc(C(=O)Nc2cc(F)c(F)c([C@@]3(C)N=C(N)S[C@@]4(COC)C[C@H]43)c2)c(C)c1` [Example 650, N-(3-((1S,5S,6S)-3-amino-1-(methoxymethyl)-5-methyl-2-thia-4-azabicyclo[4.1.0]hept-3-en-5-yl)-4,5-difluorophenyl)-3-methyl-5-(((1S)-1-methyl-2-propyn-1-yl)oxy)-2-pyridinecarboxamide] are 777 µM, 0.556 µM, 0.0389 µM and 0.344 µM.
Regarding `C[C@]1(c2cc(NC(=O)c3ccc(OCC(F)(F)C(F)F)cn3)ccc2F)N=C(N)S[C@]2(CO)[C@H]1C2(F)F` [Example 751, N-(3-((1S,5S,6R)-3-amino-7,7-difluoro-1-(hydroxymethyl)-5-methyl-2-thia-4-azabicyclo[4.1.0]hept-3-en-5-yl)-4-fluorophenyl)-5-(2,2,3,3-tetrafluoropropoxy)-2-pyridinecarboxamide], the IC50 was 292 µM on Recombinant Cat D, 0.255 µM on human recombinant BACE2, 0.00203 µM on human recombinant BACE1 and 0.0338 µM in test [1].
On the same counts, the results for `CC#CCOc1cnc2c(Nc3cc(F)c(F)c([C@@]4(C)N=C(N)S[C@@]5(C(F)F)C[C@@H]45)c3)nccc2n1` [Example 868, N-(3-((1S,5S,6S)-3-amino-1-(difluoromethyl)-5-methyl-2-thia-4-azabicyclo[4.1.0]hept-3-en-5-yl)-4,5-difluorophenyl)-2-(2-butyn-1-yloxy)pyrido[3,4-b]pyrazin-5-amine] are greater than 400 µM, 0.0211 µM, 0.000671 µM and 0.0147 µM.
On the same counts, the results for `C[C@]1(c2cc(NC(=O)c3cnc(OCC(F)(F)F)cn3)ccc2F)N=C(N)S[C@@]2(C(=O)N3CCOCC3)C[C@H]21` [Example 998, N-(3-((1S,5S,6S)-3-amino-5-methyl-1-(morpholine-4-carbonyl)-2-thia-4-azabicyclo[4.1.0]hept-3-en-5-yl)-4-fluorophenyl)-5-(2,2,2-trifluoroethoxy)pyrazine-2-carboxamide] are greater than 400 µM, 0.0754 µM, 0.000146 µM and 0.0017 µM.
